Laboratory results from ChEMBL document CHEMBL3421607, “Design, synthesis and antibacterial activity of cinnamaldehyde derivatives as inhibitors of the bacterial cell division protein FtsZ” (Eur J Med Chem, 2015).
In brackets after ≈: the same amount, converted by molar mass.

What was measured:
Format in all cases: functional
[1] = system: Bacillus subtilis; test: microbe, parasite or virus in culture; settings: ATCC 9372, 24 h
Description: Antibacterial activity against penicillin-susceptible Bacillus subtilis ATCC 9372 after 24 hrs by broth microdilution method

[2] = system: Escherichia coli; test: microbe, parasite or virus in culture; settings: ATCC 25922, 24 h
Description: Antibacterial activity against penicillin-susceptible Escherichia coli ATCC 25922 after 24 hrs by broth microdilution method

[3] = system: Pseudomonas aeruginosa; test: microbe, parasite or virus in culture; settings: ATCC 27853, 24 h
[4] = system: Staphylococcus aureus; test: microbe, parasite or virus in culture; settings: ATCC 25923, 24 h
Description: Antibacterial activity against penicillin-susceptible Staphylococcus aureus ATCC 25923 after 24 hrs by broth microdilution method

[5] = system: Staphylococcus aureus; test: microbe, parasite or virus in culture; settings: ATCC 29213, 24 h
Description: Antibacterial activity against methicillin-resistant Staphylococcus aureus ATCC 29213 after 24 hrs by broth microdilution method

[6] = system: Staphylococcus aureus; test: Antibacterial activity against penicillin-resistant Staphylococcus aureus clinical isolates after 24 hrs by broth microdilution method
[7] = system: Staphylococcus epidermidis; test: Antibacterial activity against penicillin-resistant Staphylococcus epidermidis clinical isolates after 24 hrs by broth microdilution method
[8] = system: Streptococcus pyogenes; test: Antibacterial activity against penicillin-susceptible Streptococcus pyogenes clinical isolates after 24 hrs by broth microdilution method
[9] = system: Streptococcus pyogenes; test: Antibacterial activity against penicillin-resistant Streptococcus pyogenes clinical isolates after 24 hrs by broth microdilution method
[10] = system: Bacillus subtilis; test: microbe, parasite or virus in culture; settings: ATCC 9372, 5 h
Description: Inhibition of cell division in penicillin-susceptible Bacillus subtilis ATCC 9372 assessed as filamentation after 5 hrs by phase contrast microscopy

[11] = system: Escherichia coli; test: microbe, parasite or virus in culture; settings: ATCC 25922, 5 h
Description: Inhibition of cell division in penicillin-susceptible Escherichia coli ATCC 25922 assessed as filamentation after 5 hrs by phase contrast microscopy

[12] = system: Pseudomonas aeruginosa; test: microbe, parasite or virus in culture; settings: ATCC 27853, 5 h
Description: Inhibition of cell division in penicillin-susceptible Pseudomonas aeruginosa ATCC 27853 assessed as filamentation after 5 hrs by phase contrast microscopy

[13] = system: Staphylococcus aureus; test: microbe, parasite or virus in culture; settings: ATCC 25923, 5 h
Description: Inhibition of cell division in penicillin-susceptible Staphylococcus aureus ATCC 25923 assessed as ballooning after 5 hrs by phase contrast microscopy

SMILES	MIC [1] [µg/mL]	MIC [2] [µg/mL]	MIC [3] [µg/mL]	MIC [4] [µg/mL]	MIC [5] [µg/mL]	MIC [6] [µg/mL]	MIC [7] [µg/mL]	MIC [8] [µg/mL]	MIC [9] [µg/mL]	MIC [10] [µg/mL]	MIC [11] [µg/mL]	MIC [12] [µg/mL]	MIC [13] [µg/mL]
COc1ccc(NC(=O)/C=C/c2ccc(Cl)cc2Cl)cc1	> 128	> 128	> 128	> 128	> 128	> 128	> 128	128 (≈ 397 µM)	128 (≈ 397 µM)	> 128	> 128	> 128	> 128
CCCNC(=O)/C=C/c1ccc([N+](=O)[O-])cc1	> 128	> 128	> 128	> 128	> 128	> 128	–	–	–	> 128	> 128	> 128	> 128
Cc1nccn1-c1cc(NC(=O)/C=C/c2ccc([N+](=O)[O-])cc2)cc(C(F)(F)F)c1	128 (≈ 307 µM)	> 128	> 128	128 (≈ 307 µM)	> 128	> 128	> 128	32 (≈ 76.9 µM)	128 (≈ 307 µM)	128 (≈ 307 µM)	> 128	128 (≈ 307 µM)	32 (≈ 76.9 µM)
Cc1nc2ccccc2n1C(=O)/C=C/c1ccc([N+](=O)[O-])cc1	128 (≈ 417 µM)	128 (≈ 417 µM)	128 (≈ 417 µM)	16 (≈ 52.1 µM)	> 128	128 (≈ 417 µM)	128 (≈ 417 µM)	64 (≈ 208 µM)	16 (≈ 52.1 µM)	> 128	> 128	> 128	0.5 (≈ 1.63 µM)
O=C(/C=C/c1ccc(F)cc1)N1CCOCC1	128 (≈ 544 µM)	128 (≈ 544 µM)	128 (≈ 544 µM)	> 128	> 128	> 128	> 128	> 128	–	128 (≈ 544 µM)	128 (≈ 544 µM)	128 (≈ 544 µM)	> 128
COc1cc(/C=C/C(=O)n2c(C)nc3ccccc32)cc(OC)c1OC	> 128	128 (≈ 363 µM)	> 128	> 128	> 128	> 128	128 (≈ 363 µM)	128 (≈ 363 µM)	128 (≈ 363 µM)	> 128	> 128	> 128	64 (≈ 182 µM)
C#CCNC(=O)/C=C/c1ccc([N+](=O)[O-])cc1	> 128	> 128	> 128	> 128	> 128	> 128	–	–	–	> 128	> 128	> 128	> 128
COc1cc(/C=C/C(=O)CC(=O)/C=C/c2ccc(O)c(OC)c2)ccc1O [CURCUMIN]	32 (≈ 86.9 µM)	> 128	> 128	> 128	> 128	> 128	–	> 128	–	16 (≈ 43.4 µM)	> 128	–	> 128
COc1ccccc1/C=C/C(=O)n1c(C)nc2ccccc21	128 (≈ 438 µM)	128 (≈ 438 µM)	128 (≈ 438 µM)	64 (≈ 219 µM)	128 (≈ 438 µM)	64 (≈ 219 µM)	16 (≈ 54.7 µM)	128 (≈ 438 µM)	> 128	> 128	128 (≈ 438 µM)	128 (≈ 438 µM)	> 128
CCCCNC(=O)/C=C/c1ccc([N+](=O)[O-])cc1	> 128	> 128	> 128	> 128	> 128	> 128	–	–	–	> 128	> 128	> 128	> 128
O=C(/C=C/c1ccc(Cl)cc1Cl)N1CCN(C(c2ccccc2)c2ccc(Cl)cc2)CC1 (centres undefined)	> 128	> 128	> 128	> 128	> 128	> 128	> 128	> 128	–	64 (≈ 132 µM)	> 128	> 128	64 (≈ 132 µM)
CCCCNC(=O)/C=C/c1ccc(Cl)cc1Cl [N-BUTYL-3-(2,4-DICHLOROPHENYL)ACRYLAMIDE]	> 128	> 128	128 (≈ 470 µM)	> 128	> 128	> 128	> 128	64 (≈ 235 µM)	128 (≈ 470 µM)	> 128	> 128	> 128	> 128
COc1cc(/C=C/C(=O)N(C)C)cc(OC)c1OC	128 (≈ 482 µM)	128 (≈ 482 µM)	128 (≈ 482 µM)	> 128	> 128	> 128	> 128	> 128	–	> 128	128 (≈ 482 µM)	128 (≈ 482 µM)	> 128
CCN(CC)C(=O)/C=C/c1cc(OC)c(OC)c(OC)c1	128 (≈ 436 µM)	128 (≈ 436 µM)	128 (≈ 436 µM)	64 (≈ 218 µM)	> 128	64 (≈ 218 µM)	> 128	> 128	–	128 (≈ 436 µM)	128 (≈ 436 µM)	128 (≈ 436 µM)	32 (≈ 109 µM)
O=C(O)c1cn(C2CC2)c2cc(N3CCNCC3)c(F)cc2c1=O [CIPROFLOXACIN]	8 (≈ 24.1 µM)	–	4 (≈ 12.1 µM)	8 (≈ 24.1 µM)	4 (≈ 12.1 µM)	8 (≈ 24.1 µM)	> 128	8 (≈ 24.1 µM)	> 128	> 128	> 128	> 128	> 128
C#CCNC(=O)/C=C/c1ccc(OC)c(OC)c1	> 128	> 128	> 128	> 128	> 128	> 128	–	–	–	> 128	> 128	> 128	> 128
COc1cc(/C=C/C(=O)N2CCOCC2)cc(OC)c1OC	128 (≈ 416 µM)	128 (≈ 416 µM)	> 128	64 (≈ 208 µM)	128 (≈ 416 µM)	> 128	> 128	> 128	–	128 (≈ 416 µM)	128 (≈ 416 µM)	> 128	16 (≈ 52.1 µM)
COc1ccc(/C=C/C(=O)n2c(C)nc3ccccc32)cc1	128 (≈ 438 µM)	128 (≈ 438 µM)	128 (≈ 438 µM)	128 (≈ 438 µM)	128 (≈ 438 µM)	64 (≈ 219 µM)	32 (≈ 109 µM)	> 128	–	> 128	> 128	> 128	> 128
CC(C)NC(=O)/C=C/c1ccc([N+](=O)[O-])cc1	> 128	> 128	> 128	> 128	> 128	> 128	–	–	–	> 128	> 128	> 128	> 128
O=C(O)/C=C/c1ccccc1 [CINNAMIC ACID]	> 128	> 128	> 128	> 128	> 128	> 128	> 128	> 128	–	> 128	> 128	> 128	> 128
O=C(/C=C/c1ccccc1Cl)N1CCN(C(c2ccccc2)c2ccc(Cl)cc2)CC1 (centres undefined)	> 128	> 128	> 128	> 128	> 128	> 128	> 128	> 128	–	> 128	> 128	128 (≈ 284 µM)	> 128
CCCCNC(=O)/C=C/c1ccc(OC)c(OC)c1	> 128	> 128	> 128	> 128	> 128	> 128	–	–	–	> 128	> 128	> 128	> 128
CCN(CC)C(=O)/C=C/c1ccc(OC)c(OC)c1	128 (≈ 486 µM)	128 (≈ 486 µM)	> 128	> 128	> 128	> 128	> 128	> 128	–	128 (≈ 486 µM)	128 (≈ 486 µM)	128 (≈ 486 µM)	64 (≈ 243 µM)
CCCCNC(=O)/C=C/c1ccc(C#N)cc1	> 128	> 128	> 128	> 128	> 128	> 128	–	–	–	> 128	> 128	> 128	> 128
COc1ccc(/C=C/C(=O)N(C)C)cc1OC	128 (≈ 544 µM)	128 (≈ 544 µM)	128 (≈ 544 µM)	32 (≈ 136 µM)	> 128	64 (≈ 272 µM)	> 128	> 128	–	> 128	128 (≈ 544 µM)	> 128	8 (≈ 34 µM)
COc1ccc(/C=C/C(=O)N2CCOCC2)cc1OC	128 (≈ 462 µM)	128 (≈ 462 µM)	> 128	> 128	> 128	> 128	> 128	> 128	–	> 128	128 (≈ 462 µM)	> 128	> 128
COc1ccccc1/C=C/C(=O)N1CCN(C(c2ccccc2)c2ccc(Cl)cc2)CC1 (centres undefined)	> 128	> 128	> 128	> 128	> 128	> 128	> 128	> 128	–	> 128	> 128	> 128	64 (≈ 143 µM)
